Test results from EPA's ToxValDB 9.5 (doi:10.2903/j.efsa.2010.1705).
Converted amounts (≈) assume the structure as drawn.

What was measured:
[1] = system: Tagia sp.
[2] = system: Canidae; conditions: chronic, Dog Other
[3] = system: Oryctolagus sp.
[4] = system: Colinus virginianus; conditions: for LD50: acute, mortality
[5] = system: Rattus norvegicus; conditions: for LD50: acute, mortality; for NOAEL: chronic
[6] = system: Anas platyrhynchos; conditions: for LD50: oral
[7] = system: Daphnia magna; conditions: chronic/long-term; duration: 21 days; reproduction
[8] = system: Oncorhynchus mykiss

| SMILES | NOEC ([1]; chronic/long-term, duration: 56 days) [mg/kg] | NOAEL ([2]; duration: 2 years) [mg/kg-day] | NOAEL ([3]; reproduction developmental, body weight) [mg/kg-day] | NOEL ([4]; short-term, oral, diet) [mg/kg-day] | LD50 ([5]; oral) [mg/kg-day] | NOAEL [5] [mg/kg-day] | NOAEL ([5]; oral) [mg/kg-day] | LD50 ([6]; acute, unspecified, clinical signs) [mg/kg-day] | NOEL ([6]; not reported) [mg/kg-day] | LD50 ([6]; short-term, feed, mortality) [mg/kg-day] | LC50 ([1]; acute, duration: 14 days, mortality) [mg/kg] | NOEC [7] [mg/L] | NOAEL ([2]; duration: 52 weeks, oral, hematological) [mg/kg-day] | LC50 ([8]; acute, duration: 96 hours, mortality) [mg/L] | NOEC ([8]; chronic/long-term, duration: 96 days, growth) [mg/L] | NOAEL ([3]; developmental, development) [mg/kg-day] | LD50 ([4]; oral, diet) [mg/kg-day] | LD50 ([4]; oral) [mg/kg-day] | NOEL ([4]; reproduction developmental) [mg/kg-day] |
| --- | --- | --- | --- | --- | --- | --- | --- | --- | --- | --- | --- | --- | --- | --- | --- | --- | --- | --- | --- |
| NC(=O)c1c(Cl)cccc1Cl [2,6-Dichlorobenzamide] | 250 | 4.5 | 30 | 876 | 500 | 5.7 | 13.5 | – | – | – | – | – | – | – | – | – | – | – | – |
| N#Cc1c(Cl)cccc1Cl [2,6-Dichlorobenzonitrile] | – | – | – | – | > 2000 | – | – | > 50 | 35.5 | > 470 | 270 | 1.2 | 1 | 7.2 (≈ 41.9 µM) | 0.66 | 45 | 598 | 698 | 14.1 |
